Assay results reported in patent US20220226341A1, “Pharmaceutical Composition for Alzheimer's Disease” (Kyoto University, priority 2019, published 2022).

Tests used:
[1] = Tissue distribution of radioactivity after single intravenous administration of 14C-labeled Compound 1 (blood-brain barrier penetration); format: in vivo; conditions: rats, single iv 5 mg/kg 14C-labeled; for Radioactivity concentration: n = 3
Protocol: [Testing the Penetration of the Compound Through the Blood-Brain Barrier]
Brain permeability (intracerebral transferability) of Compound 1 was evaluated.
^14C-labeled Compound 1 was intravenously administered once in a dose of 5 mg/kg (3.52 MBq/kg) to rats, and histological distribution (biodistribution) thereof was studied.

[2] = test system: Human Herpesvirus Type 6A (HHV-6A); experiment: Antiviral test against HHV-6A in Sup-T1 cells, TaqMan PCR; format: cell-based
Protocol: [Antiviral Test Against HHV-6A]
An antiviral test against HHV-6A using Compound 1 was performed by the following procedure.
Virus strain: Human Herpesvirus Type 6A (HHV-6A)
Medium: RPMI-1640+10% FBS+1% penicillin/streptomycin
Detection method: TaqMan PCR
Sup-T1 cells were cultured at a concentration of 1×10^6/ml, Compound 1, 3 μM, was added, and one hour after, HHV-6A virus (1×10^4 infectious units) were sensitized (or unsensitized cells were prepared as a negative control).
After culturing at 37° C. for two hours, the medium was replaced, and Compound 1 was added again. Three days after, 500 μl of the medium was sampled, and HHV-6A virus was quantified by TaqMan PCR. Statistical analysis was performed by Student's t-test.

Compound: Fc1ccc(N2CCCCC2)c(NC(=S)c2ccncc2)c1 [Compound 1]
- Radioactivity concentration ([1]; Lung, 168 h): 12.98 ng eq. of Compound 1/g or mL
- Radioactivity concentration ([1]; Mandibular gland, 5 min): 13355.34 ng eq. of Compound 1/g or mL
- Radioactivity concentration ([1]; Mandibular gland, 6 h): 995.48 ng eq. of Compound 1/g or mL
- Radioactivity concentration ([1]; Mandibular gland, 24 h): 115.51 ng eq. of Compound 1/g or mL
- Radioactivity concentration ([1]; Mandibular gland, 72 h): 8.87 ng eq. of Compound 1/g or mL
- Radioactivity concentration ([1]; Mandibular lymph node, 5 min): 5693.66 ng eq. of Compound 1/g or mL
- Radioactivity concentration ([1]; Mandibular lymph node, 6 h): 1018.12 ng eq. of Compound 1/g or mL
- Radioactivity concentration ([1]; Mandibular lymph node, 24 h): 108.82 ng eq. of Compound 1/g or mL
- Radioactivity concentration ([1]; Mandibular lymph node, 72 h): 8.13 ng eq. of Compound 1/g or mL
- Radioactivity concentration ([1]; Pancreas, 5 min): 14356.66 ng eq. of Compound 1/g or mL
- Radioactivity concentration ([1]; Pancreas, 6 h): 1206.84 ng eq. of Compound 1/g or mL
- Radioactivity concentration ([1]; Pancreas, 24 h): 105.62 ng eq. of Compound 1/g or mL
- Radioactivity concentration ([1]; Pancreas, 72 h): 7.37 ng eq. of Compound 1/g or mL
- Radioactivity concentration ([1]; Prostate gland, 5 min): 5072.42 ng eq. of Compound 1/g or mL
- Radioactivity concentration ([1]; Prostate gland, 6 h): 1268.5 ng eq. of Compound 1/g or mL
- Radioactivity concentration ([1]; Prostate gland, 24 h): 114.45 ng eq. of Compound 1/g or mL
- Radioactivity concentration ([1]; Prostate gland, 72 h): 7.62 ng eq. of Compound 1/g or mL
- Radioactivity concentration ([1]; Skeletal muscle, 5 min): 2479.87 ng eq. of Compound 1/g or mL
- Radioactivity concentration ([1]; Skeletal muscle, 6 h): 838.23 ng eq. of Compound 1/g or mL
- Radioactivity concentration ([1]; Skeletal muscle, 24 h): 97.94 ng eq. of Compound 1/g or mL
- Radioactivity concentration ([1]; Skeletal muscle, 72 h): 10.11 ng eq. of Compound 1/g or mL
- Radioactivity concentration ([1]; Skin, 5 min): 3889.26 ng eq. of Compound 1/g or mL
- Radioactivity concentration ([1]; Skin, 6 h): 2084.85 ng eq. of Compound 1/g or mL
- Radioactivity concentration ([1]; Skin, 24 h): 150.1 ng eq. of Compound 1/g or mL
- Radioactivity concentration ([1]; Skin, 72 h): 23.26 ng eq. of Compound 1/g or mL
- Radioactivity concentration ([1]; Skin, 168 h): 6.57 ng eq. of Compound 1/g or mL
- Radioactivity concentration ([1]; Small intestine, 5 min): 6555.86 ng eq. of Compound 1/g or mL
- Radioactivity concentration ([1]; Small intestine, 6 h): 1979.83 ng eq. of Compound 1/g or mL
- Radioactivity concentration ([1]; Small intestine, 24 h): 156.71 ng eq. of Compound 1/g or mL
- Radioactivity concentration ([1]; Small intestine, 72 h): 9.85 ng eq. of Compound 1/g or mL
- Radioactivity concentration ([1]; Spleen, 5 min): 6622.6 ng eq. of Compound 1/g or mL
- Radioactivity concentration ([1]; Spleen, 6 h): 944.65 ng eq. of Compound 1/g or mL
- Radioactivity concentration ([1]; Spleen, 24 h): 113.01 ng eq. of Compound 1/g or mL
- Radioactivity concentration ([1]; Spleen, 72 h): 9.68 ng eq. of Compound 1/g or mL
- Radioactivity concentration ([1]; Stomach, 5 min): 8261.97 ng eq. of Compound 1/g or mL
- Radioactivity concentration ([1]; Stomach, 6 h): 2309.97 ng eq. of Compound 1/g or mL
- Radioactivity concentration ([1]; Stomach, 24 h): 227.12 ng eq. of Compound 1/g or mL
- Radioactivity concentration ([1]; Testis, 5 min): 2762.22 ng eq. of Compound 1/g or mL
- Radioactivity concentration ([1]; Testis, 6 h): 1217.12 ng eq. of Compound 1/g or mL
- Radioactivity concentration ([1]; Testis, 24 h): 128.05 ng eq. of Compound 1/g or mL
- Radioactivity concentration ([1]; Testis, 72 h): 8.72 ng eq. of Compound 1/g or mL
- Radioactivity concentration ([1]; Thymus, 5 min): 5034.15 ng eq. of Compound 1/g or mL
- Radioactivity concentration ([1]; Thymus, 6 h): 954.13 ng eq. of Compound 1/g or mL
- Radioactivity concentration ([1]; Thymus, 24 h): 97.42 ng eq. of Compound 1/g or mL
- Radioactivity concentration ([1]; Thymus, 72 h): 5.22 ng eq. of Compound 1/g or mL
- Radioactivity concentration ([1]; Thyroid gland, 5 min): 9550.71 ng eq. of Compound 1/g or mL
- Radioactivity concentration ([1]; Thyroid gland, 6 h): 2369.71 ng eq. of Compound 1/g or mL
- Radioactivity concentration ([1]; Thyroid gland, 24 h): 793.99 ng eq. of Compound 1/g or mL
- Radioactivity concentration ([1]; Thyroid gland, 72 h): 298.2 ng eq. of Compound 1/g or mL
- Radioactivity concentration ([1]; Thyroid gland, 168 h): 125.76 ng eq. of Compound 1/g or mL
- Brain permeability (intracerebral transferability) ([1]; cerebellum, cerebrum, pituitary gland higher than plasma at 5 minutes): capable of penetrating the brain
- Effect of suppressing growth of HHV-6A ([2]; 3 μM, in words): effect of suppressing growth of HHV-6A in the Compound 1-treated group was confirmed
- HHV-6A copy number ([2]; Compound 1 3 μM, medium sampled three days after, TaqMan PCR): 6767.59
